These are literature values, as cited in US20250171456A1, “P[…] AND THEIR THERAPEUTIC USES” (priority 2022, published 2025).

SMILES strings stand for the structures.

For series [1] the following is noted: humans, after oral administration of psilocybin (Passie, 2002).
The conditions of series [2]: Ballesteros, 2006.

In the case of `CN(C)CCc1c[nH]c2cccc(O)c12` [Psilocin], in series [1], the “time until psilocin is detectable in significant amounts in the plasma” value was 20 to 40 min. For `CN(C)CCc1c[nH]c2cccc(OP(=O)(O)O)c12` [Psilocybin], the “solubility in water relative to psilocin” value in series [2] was “more soluble in water than psilocin”.
